# From US9745297B2, “Compounds as modulators of RORC” (Boehringer Ingelheim International GmbH, priority 2013, dated 2017)
# Molecular target: T1, RORγt (Homo sapiens, UniProt P51449)
# T1 construct: expressed in transfected cells
# T1 sequence (P51449 269-508 limits assumed): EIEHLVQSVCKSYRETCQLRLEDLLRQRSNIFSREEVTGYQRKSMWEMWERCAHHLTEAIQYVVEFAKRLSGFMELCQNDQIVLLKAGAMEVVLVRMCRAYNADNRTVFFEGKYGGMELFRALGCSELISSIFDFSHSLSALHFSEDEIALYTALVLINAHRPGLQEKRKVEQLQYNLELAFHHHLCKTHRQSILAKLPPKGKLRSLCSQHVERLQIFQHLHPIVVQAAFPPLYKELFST
# Experiment: RGA Assay: nuclear receptor transactivation assay, RORγt transactivation of a luciferase reporter
# Format: cell-based
# Details: transiently transfected HEK 293 cells (pGL4.3 luc2P/GAL4UAS, pBIND Gal4DBD hRORC LBD), 20-24 hours incubation, luciferase readout
# Protocol: A nuclear receptor transactivation assay was performed to quantitate the ability of test compounds to inhibit RORγt transactivation of a luciferase reporter. A similar assay is described in: Khan et al., Bioorganic & Medicinal Chemistry Letters 23 (2013), 532-536. The system uses transiently transfected HEK 293 cells cotransfected with two plasmids (pGL4.3, luc2P/GAL4UAS/Hygro, and pBIND, Ga14DBD hRORC LBD1-3). The positive control is co-transiently transfected with both plasmids, and the negative control contains the pGL4.3 promoter sequence. Assays were assembled in 384 well plates where transiently transfected cells and test compound at varying concentrations were incubated for 20-24 hours. The next day, assays plates are taken out and equillibrated at RT for 20-30 minutes. Bright-Glo™ Luciferase Assay System is used to detect Luciferase production. After addition of Bright GLO detection reagent, the plates were incubated at RT for 20 minutes. The plates were read on an Envision plate reader to measure luminescence signal. The RLU signal is converted to POC relative to control and blank wells.
# Compound Dilution Buffer:
# Bright Glo Luciferase Assay System: Promega #E2620
# Thaw lysis buffer provided in kit, add 100 mL lysis buffer to substrate powder.
row,SMILES,IC50 [µM]
1,CCS(=O)(=O)c1ccc(CNC(=O)N2CC3(CCCC3)c3nc(-c4cnc(C#N)nc4C4CC4)ccc32)cc1 [Example 64],16
2,CCS(=O)(=O)c1ccc(CNC(=O)N2CC3(CCCC3)c3nc(-c4ccc(F)cc4C)ccc32)cc1 [Example 14],3.4
3,CCNC(=O)c1ccc(-c2ccc3c(n2)C2(CCCC2)CN3C(=O)NCc2ccc(S(C)(=O)=O)cc2)c(C)c1 [Example 9],4.3
4,CCS(=O)(=O)c1ccc(CNC(=O)N2CC3(CCCC3)c3nc(-c4sc(OC)nc4C)ccc32)cc1 [Example 27],8
5,CCS(=O)(=O)c1ccc(CNC(=O)N2CC3(CCCC3)c3nc(-c4nc(C)cnc4C)ccc32)cc1 [Example 41],> 30
6,Cc1cc(C)c(Oc2ccc3c(n2)C2(CCCC2)CN3C(=O)NCc2ccc(S(C)(=O)=O)cc2)cn1 [Example 60],8.5
7,CCS(=O)(=O)c1ccc(CNC(=O)N2CC3(CCCC3)c3nc(-c4cn5ccnc5cc4C)ccc32)cc1 [Example 63],> 30
8,CCS(=O)(=O)c1ccc(CNC(=O)N2CC3(CCCC3)c3nc(-c4ncc(C(F)(F)F)cn4)ccc32)cc1 [Example 38],> 30
9,COc1cc(C)c(-c2ccc3c(n2)C(C)(C)CN3C(=O)NCc2ccc(C#N)cc2)cn1 [Example 3],> 30
10,CC(C)c1ncncc1-c1cc2c(cn1)N(C(=O)NCc1ccc(S(C)(=O)=O)cc1)CC2(C)C [Example 88],> 30
11,Cc1cc(C#N)ccc1-c1cc2c(cn1)N(C(=O)NCc1ccc(S(C)(=O)=O)cc1)CC2(C)C [Example 92],> 30
12,CC(C)Oc1ncnc(C2CC2)c1-c1ccc2c(n1)C1(CCCC1)CN2C(=O)NCc1ccc(S(C)(=O)=O)cc1 [Example 68],2.5
13,CC1(C)CN(C(=O)NCc2ccc(S(C)(=O)=O)cc2)c2ccc(Br)nc21 [Example 16],> 30
14,CCS(=O)(=O)c1ccc(CNC(=O)N2CC3(CCCC3)c3cc(Cl)ncc32)cc1 [Example 96],> 30
15,COc1cc(C)c(-c2cc3c(cn2)N(C(=O)NCc2ccc(S(C)(=O)=O)cc2)CC3(C)C)cn1 [Example 90],> 30
16,CNS(=O)(=O)c1ccc(CNC(=O)N2CC(C)(C)c3nc(-c4ccc(O)cc4C)ccc32)cc1 [Example 43],8.5
17,COC1CCN(c2ccc(-c3ccc4c(n3)C3(CCCC3)CN4C(=O)NCc3ccc(S(C)(=O)=O)cc3)c(C)n2)CC1 [Example 7],> 30
18,CCS(=O)(=O)c1ccc(CNC(=O)N2CC3(CCCC3)c3cc(-c4cnc(OC)nc4C4CC4)ncc32)cc1 [Example 95],> 30
19,COc1ccc(-c2ccc3c(n2)C(C)(C)CN3C(=O)NCc2ccc(S(C)(=O)=O)cc2)c(C(F)(F)F)c1 [Example 18],3.4

row,SMILES,IC50 [µM]
1,CNS(=O)(=O)c1ccc(CNC(=O)N2CC(C)(C)c3nc(Br)ccc32)cc1 [Example 17],> 30
2,COc1ccc(-c2ccc3c(n2)C2(CCCC2)CN3C(=O)NCc2ccc(C#N)cc2)c(C(F)(F)F)c1 [Example 46],4.1
3,CC(C)c1ncncc1-c1ccc2c(n1)C(C)(C)CN2C(=O)NCc1ccc(S(C)(=O)=O)cc1 [Example 20],19
4,CCS(=O)(=O)c1ccc(CNC(=O)N2CC3(CCCC3)c3nc(-c4c(C)nn(CCN(C)C)c4C)ccc32)cc1 [Example 28],> 30
5,COc1ncnc(C(F)(F)F)c1-c1ccc2c(n1)C1(CCCC1)CN2C(=O)NCc1ccc(S(C)(=O)=O)cc1 [Example 75],3.7
6,CCS(=O)(=O)c1ccc(CNC(=O)N2CC(C)(C)c3cc(-c4c(OC)ncnc4C4CC4)ncc32)cc1 [Example 94],3.8
7,CCS(=O)(=O)c1ccc(CNC(=O)N2CC3(CCCC3)c3nc(-c4cc(CN5CC[C@H](O)C5)ccc4C)ccc32)cc1 [Example 85],> 30
8,CCS(=O)(=O)c1ccc(CNC(=O)N2CC3(CCCC3)c3nc(-c4cc(CN5CC[C@H](O)C5)ccc4C4CC4)ccc32)cc1 [Example 83],6.9
9,CNS(=O)(=O)c1ccc(CNC(=O)N2CC(C)(C)c3nc(-c4ccc(F)cc4C)ccc32)cc1 [Example 42],10
10,COc1cc(C)c(-c2ccc3c(n2)C2(CCCC2)CN3C(=O)NCc2ccc(C#N)cc2)cn1 [Example 47],15
11,COc1cc(C)c(-c2ccc3c(n2)C2(CCCC2)CN3C(=O)NCc2ccc(S(C)(=O)=O)cc2)cn1 [Example 58],8
12,CCS(=O)(=O)c1ccc(CNC(=O)N2CC3(CCCC3)c3nc(-c4cc(CN5CC[C@@H](O)C5)ccc4C)ccc32)cc1 [Example 84],> 30
13,CNS(=O)(=O)c1ccc(CNC(=O)N2CC(C)(C)c3nc(Oc4ccc(F)c(OC(F)(F)F)c4)ccc32)cc1 [Example 49],4.1
14,CCS(=O)(=O)c1ccc(CNC(=O)N2CC3(CCCC3)c3nc(-c4c(C)ncnc4C)ccc32)cc1 [Example 24],5.9
15,CCS(=O)(=O)c1ccc(CNC(=O)N2CC3(CCCC3)c3nc(-c4ccc(C#N)cc4C)ccc32)cc1 [Example 10],11
16,CCS(=O)(=O)c1ccc(CNC(=O)N2CC3(CCCC3)c3nc(-c4sc(N)nc4C(F)(F)F)ccc32)cc1 [Example 32],17
17,CNS(=O)(=O)c1ccc(CNC(=O)N2CC3(CCCC3)c3cc(-c4ccc(F)cc4C)ncc32)cc1 [Example 86],2.6
18,COC1CCCN(c2ccc(-c3ccc4c(n3)C3(CCCC3)CN4C(=O)NCc3ccc(S(C)(=O)=O)cc3)c(C)n2)C1 (stereo not shown) [Example 6],24

# These reach a lower IC50. Values come first.
row,IC50 [µM],SMILES
1,0.11,CCS(=O)(=O)c1ccc(CNC(=O)N2CC3(CCCC3)c3nc(-c4ccc(O)cc4C(F)(F)F)ccc32)cc1 [Example 11]
2,1.2,CCS(=O)(=O)c1ccc(CNC(=O)N2CC3(CCCC3)c3nc(-c4cncnc4C(C)C)ccc32)cc1 [Example 25]
3,1.7,CCS(=O)(=O)c1ccc(CNC(=O)N2CC3(CCCC3)c3nc(-c4c(C(C)C)n[nH]c4C)ccc32)cc1 [Example 29]
4,1.2,CCS(=O)(=O)c1ccc(CNC(=O)N2CC3(CCCC3)c3nc(-c4cnc(N(C)C)nc4C(F)(F)F)ccc32)cc1 [Example 33]
5,0.36,CCS(=O)(=O)c1ccc(CNC(=O)N2CC3(CCCC3)c3nc(-c4c(C)ncnc4C(F)(F)F)ccc32)cc1 [Example 99]
6,1.6,CNS(=O)(=O)c1ccc(CNC(=O)N2CC3(CCCC3)c3nc(-c4ccc(F)cc4C)ccc32)cc1 [Example 1]
7,0.74,CCS(=O)(=O)c1ccc(CNC(=O)N2CC3(CCCC3)c3cc(-c4c(OC)ncnc4C4CC4)ncc32)cc1 [Example 93]
8,0.35,CCS(=O)(=O)c1ccc(CNC(=O)N2CC3(CCCC3)c3nc(-c4c(OC)ncnc4C4CC4)ccc32)cc1 [Example 26]
9,1.4,Cc1cc(O)ccc1-c1ccc2c(n1)C1(CCCC1)CN2C(=O)NCc1ccc(S(C)(=O)=O)cc1 [Example 54]
10,0.48,CCS(=O)(=O)c1ccc(CNC(=O)N2CC3(CCCC3)c3nc(-c4ccc(OC)cc4C(F)(F)F)ccc32)cc1 [Example 12]
11,0.38,CCS(=O)(=O)c1ccc(CNC(=O)N2CC3(CCCC3)c3nc(-c4c(C)ncnc4C4CC4)ccc32)cc1 [Example 79]
12,0.73,CCS(=O)(=O)c1cnc(CNC(=O)N2CC3(CCCC3)c3nc(-c4c(OC)ncnc4C4CC4)ccc32)nc1 [Example 102]
13,1.1,CNS(=O)(=O)c1ccc(CNC(=O)N2CC3(CCCC3)c3nc(-c4cncnc4C(C)C)ccc32)cc1 [Example 55]
14,0.2,CCS(=O)(=O)c1ccc(CNC(=O)N2CC3(CCCC3)c3nc(-c4c(C5CC5)ncnc4C4CC4)ccc32)cc1 [Example 97]
15,0.84,Cc1ncnc(C2CC2)c1-c1ccc2c(n1)C1(CCCC1)CN2C(=O)NCc1ccc(S(C)(=O)=O)cc1 [Example 80]
16,1.5,CCC1(C)CN(C(=O)NCc2ccc(S(=O)(=O)CC)cc2)c2ccc(-c3c(OC)ncnc3C3CC3)nc21 (stereo not shown) [Example 73]
17,0.83,CCS(=O)(=O)c1ccc(CNC(=O)N2CC3(CCCC3)c3nc(-c4c(OC(C)C)ncnc4C4CC4)ccc32)cc1 [Example 67]
18,0.76,CCOc1ncnc(C2CC2)c1-c1ccc2c(n1)C1(CCCC1)CN2C(=O)NCc1ccc(S(=O)(=O)CC)cc1 [Example 70]
19,0.93,COc1ccc(-c2ccc3c(n2)C2(CCCC2)CN3C(=O)NCc2ccc(S(C)(=O)=O)cc2)c(C(F)(F)F)c1 [Example 52]
20,0.71,CNS(=O)(=O)c1ccc(CNC(=O)N2CC3(CCCC3)c3nc(-c4ccc(OC)cc4C(F)(F)F)ccc32)cc1 [Example 51]
21,1.8,CNS(=O)(=O)c1ccc(CNC(=O)N2CC(C)(C)c3nc(-c4ccc(OC)cc4C(F)(F)F)ccc32)cc1 [Example 23]
22,0.37,CCS(=O)(=O)c1ccc(CNC(=O)N2CC3(CCCC3)c3nc(-c4c(C5CC5)ncnc4C4CC4)ccc32)nc1 [Example 98]
23,1.6,CC(C)c1ncncc1-c1ccc2c(n1)C1(CCCC1)CN2C(=O)NCc1ccc(S(C)(=O)=O)cc1 [Example 56]
24,1.5,CCS(=O)(=O)c1ccc(CNC(=O)N2CC(C)(C)c3nc(-c4c(OC)ncnc4C(F)(F)F)ccc32)cc1 [Example 81]
